According to BindingDB's records for doi:10.1016/j.bmcl.2013.01.017 (Vanderbilt University Medical Center, 2013):

Target: T1, Muscarinic acetylcholine receptor M1 (Homo sapiens, UniProt P11229)
T1 sequence (P11229 whole entry): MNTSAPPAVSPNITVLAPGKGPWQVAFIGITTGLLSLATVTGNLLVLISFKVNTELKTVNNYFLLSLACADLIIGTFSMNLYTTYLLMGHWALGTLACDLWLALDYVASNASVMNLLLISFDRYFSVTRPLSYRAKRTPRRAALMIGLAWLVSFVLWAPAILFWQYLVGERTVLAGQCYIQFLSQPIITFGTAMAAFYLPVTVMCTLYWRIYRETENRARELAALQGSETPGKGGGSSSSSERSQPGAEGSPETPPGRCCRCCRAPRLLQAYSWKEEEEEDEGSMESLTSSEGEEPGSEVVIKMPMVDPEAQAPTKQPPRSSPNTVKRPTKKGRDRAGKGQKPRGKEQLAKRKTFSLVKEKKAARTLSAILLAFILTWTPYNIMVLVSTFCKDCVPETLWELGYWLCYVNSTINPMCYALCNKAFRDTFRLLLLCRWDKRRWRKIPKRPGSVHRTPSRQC
Assay: Positive allosteric modulation of human muscarinic M1 receptor

- EC50: > 10 µM
Structure (SMILES): Cn1cc(-c2ccc(CN3C(=O)C4(CCN(C5CCCC5)C4)c4ccccc43)c(F)c2)cn1 (stereo unspecified)
